Results from patent US20150307938A1, “METHOD TO IDENTIFY A NOVEL CLASS OF IMMUNOLOGIC ADJUVANTS” (Lancell, L.L.C., priority 2011, published 2015).

System: dendritic cells
Assay: 48 hr response of wild-type and Caspase-1−/− mice to topical FITC+DBP (flow cytometry of draining lymph node)
Type: in vivo
Settings: vs wild-type
Experimental: We also tested the relevance of a second dendritic cell activation system that intersects with TLR, the NALP inflammasome (reviewed in Franchi, L. et al. 2009 “The inflammasome: a Caspase-1-activation platform that regulates immune responses and disease pathogenesis” Nature Immunology 10:241-247).
Mice were treated topically on the shaved abdominal skin with FITC dissolved in acetone (5 mg/ml) combined with an equal volume of DBP. Two days later, the skin draining inguinal lymph node cells were stained for immunofluorescent flow cytometry using monoclonal antibodies specific for CD19, CD11c, CD40, I-Ab, CD80, and CD86 obtained from BD Pharmingen, and detected using a Becton Dickenson FACSCalibur followed by analysis of the data using FlowJo software.

In the case of CCCCOC(=O)c1ccccc1C(=O)OCCCC [DBP, dibutylphthalate], the “dendritic cell response in Casp−/− mice” value is reported as “undiminished”.
